The assay relates to P. falciparum 3D7 growth, pLDH absorbance. Kind of assay: P. falciparum 3D7 growth inhibition, dose response, strain 3D7 (AID 2305).

As usually defined, the IC50 is the concentration that gives 50% inhibition. Higher therefore signals a need for much substance.

Molecule `COc1cccc(NC(=O)NC2CCN(c3ccnc(Nc4ccc(F)cc4)n3)C2)c1` (centres undefined) gave an IC50 of 570 nM. This counts as sub-micromolar.

`CCCCN(CCCC)CCNC(=O)c1cc(OC(F)(F)F)ccc1O`: the IC50 came out at 920 nM. In turn, `O=C(c1ccc(Cl)cc1)C1CCN(CCCOc2ccc3c(c2)CCNCC3)CC1` returned an IC50 of 1150 nM. The molecule `FC(F)(F)c1ccc(NC(=S)N2CCC(CCN3CCC(c4c[nH]c5ccccc45)CC3)CC2)cc1` registered an IC50 of 890 nM.

`C[C@@H](CC1CCCCC1)OC(=O)N[C@H]1CCN(C#N)C1` came in with an IC50 of 870 nM. With `Cc1ncc([N+](=O)[O-])n1CCOC(=O)NC(NCC1COc2ccccc2O1)C(Cl)(Cl)Cl` (centres undefined) the figure was 220 nM; with `c1ccc(-c2ccc(CNCc3ccc(-c4cccc(-c5nc6ccccc6[nH]5)c4)cc3)s2)nc1`, 400 nM; with `CCCc1cn2c3c(cc(C(=O)N[C@@H](Cc4ccccc4)[C@H](O)CNC4CCOCC4)cc13)N(CC)S(=O)(=O)CC2`, 100 nM. Regarding `O=C(/C=C/c1ccc(Cl)cc1)NCCCCCN1CCC(C(=O)Nc2cccc(Cl)c2)CC1`, the IC50 is 850 nM. Molecule `Nc1nc(N)c2c(ccc3c2ccn3CC2CC2)n1` came in with an IC50 of 210 nM. In turn, `CCCc1cc(OC)c(C[C@@H]2c3cc(O)c(Cl)cc3CCN2C)cc1OC` had an IC50 of 720 nM. With `CC(C)(C)c1ccc(C(=O)NC2CCC(CCN3CCc4ccc(S(C)(=O)=O)cc4CC3)CC2)cc1C(F)(F)F` (centres undefined) the figure was 1220 nM; with `CC(=O)Nc1ccc(C(=O)Nc2ccc(-c3cccc(-c4nc5ccc(F)cc5[nH]4)c3)cc2)cn1`, 230 nM. Molecule `CC1(C)N=C(NC(=O)c2cc([N+](=O)[O-])cc([N+](=O)[O-])c2)N=C(N)N1OCc1cccc2ccccc12` showed an IC50 of 10 nM.

As for `COc1ccccc1CCNc1nc(C)cc(N[C@@H](Cc2ccccc2)C(=O)NCCc2ccccc2)n1`, the IC50 came out at 1110 nM. With `CCC1CN(S(=O)(=O)c2ccc3c(c2)NC(=O)CC(=O)N3)c2cc(Cl)ccc2O1` (centres undefined) the figure was 660 nM; with `O=c1c2ccccc2nc(C=Cc2ccc([N+](=O)[O-])cc2)n1-c1ccccn1`, 380 nM. As for `CCOC(=O)C1CCN(CCCNC(=O)/C(=C/C=C/c2cc3cc(Cl)c(Cl)cc3[nH]2)OC)CC1`, the figure is 1040 nM; as for `CN1C(C)(C)CC(NC(=O)c2ccc(-c3nc4ccc(Cl)cc4[nH]3)cc2)CC1(C)C`, 990 nM. With `NC(=O)c1ccccc1Nc1nc(Nc2cccc(N3CCN(CCO)CC3)c2)ncc1Cl` the figure was 40 nM; with `CN(C)c1ccc(C=C2SC(=O)NC2=Nc2ccccc2)cc1`, 30 nM. Molecule `O=c1cc(NCCCNCc2[nH]c3cc(Cl)ccc3c2Cl)[nH]c2ccccc12` gave an IC50 of 910 nM. As for `COCCN1CCC(NCC(C)(C)c2nc(-c3ccc(Cl)c(O)c3)c(-c3ccncc3)[nH]2)CC1`, the figure is 720 nM; as for `CC(C)COc1ccc(Cl)cc1Cc1ccc(-c2nc3ccc(C(F)(F)F)cc3[nH]2)o1`, 850 nM. As for `O=C1c2ccccc2CN1CCCN1CCC(Oc2ccc(F)cc2)CC1`, the figure is 1210 nM; as for `O=C(Nc1ccc(Cl)c(Cl)c1)Nc1ccc2nccc(N3CCN(Cc4ccccc4)CC3)c2c1`, 160 nM. Turning to `COc1cc(Cc2cnc(NCCN3CCNCC3)nc2N)ccc1OCc1ccc(C(F)(F)F)cc1`, the IC50 worked out at 920 nM. As for `CC(=O)Nc1ccc(CN(Cc2ccc(F)cc2)Cc2ccc3c(c2)OCO3)cc1`, the figure is 940 nM. For the molecule `CN(C)CCCOc1cccc(CCNCc2cccc(Oc3ccc(Cl)cc3)c2)c1`, the IC50 is 1010 nM. This IC50 and that of the molecule before are within 1.5-fold of each other.

In turn, `Cc1ccc(CNC(=O)[C@H](CCCN)Nc2cc(C)nc(NCC3CCCCC3)n2)cc1` gave an IC50 of 1220 nM. `Nc1nc(N)c2c(ccc3ccccc32)n1` returned an IC50 of 750 nM. As for `O=C1C2=C(Nc3ccccc3SC2c2cccs2)c2ccccc21` (centres undefined), the figure is 230 nM. On to `Clc1ccc(NC(=NCCCCCCCN=C(Nc2ccc(Cl)cc2)Nc2ccc(Cl)cc2)Nc2ccc(Cl)cc2)cc1`, for which the IC50 amounted to 320 nM. As for `CC(C)CCNCc1ccc(OCc2ccccc2COc2ccc(CNCCC(C)C)cc2I)c(I)c1`, the figure is 430 nM.

`Cc1cc(Cl)c(S(=O)(=O)NC(C)(C)C)cc1OCC(=O)NC1CCCCC1`: the IC50 came to 550 nM. This IC50 and that of the molecule before are within 1.5-fold of each other. Consider `Fc1ccc(C=NNc2ccnc3ccccc23)cc1`, for which the IC50 came to 710 nM. The IC50 values of the last two molecules are within 1.5-fold of each other.

`O=C(Nc1ccc(F)cc1)NC1CCN(CCCCCNC(=O)[C@@H]2C[C@H]2c2ccc(Cl)c(Cl)c2)CC1` came in with an IC50 of 990 nM. Turning to `O=C(Nc1ccc(Cl)c(Cl)c1)Nc1cc(C(F)(F)F)ccc1Cl`, the IC50 stood at 1440 nM. With `O=C(NCCCCN1CCC(c2ccc([N+](=O)[O-])cc2)CC1)c1ccc(NC(=O)c2ccc(Cl)cc2)cc1` the figure was 760 nM; with `O=C(Nc1ccc(F)cc1)NC1CCN(c2ccnc3ccccc23)C1` (centres undefined), 870 nM; with `Cc1noc(C)c1C(=O)N1CCCC(c2[nH]c3c(C)cccc3c2-c2ccncc2)C1` (centres undefined), 840 nM.

Regarding `CSc1ccc(CN2CCC(NC(=O)c3ccc(-c4cccc(Cl)c4)s3)CC2)cc1`, the IC50 was 1290 nM. With `O=C(NC1CCC(CN2CCC(c3c[nH]c4ccccc34)CC2)CC1)c1ccc(-c2cc(C(F)(F)F)ccc2Cl)o1` (centres undefined), the IC50 worked out at 710 nM.

The molecule `C=CCOC(=O)N1CCC(CNCc2cccc(-c3ccc(-c4nc5c(C)cccc5[nH]4)s3)c2)C1` (centres undefined) came in with an IC50 of 250 nM.

The values are drawn from PubChem BioAssay AID2305 (GlaxoSmithKline (GSK), 2010).
